These results are taken from patent US20180140703A1, “TUMOR RADIOSENSITIZATION WITH ANTIBODY CONJUGATES” (The Regents of the University California, priority 2016, published 2018).

Series [1] concerns CAL-27 cells. Description: Phase contrast microscopy. The series is classed as cell-based, human. The following applies: 2 nM overnight. The source says: Cells were fixed at indicated times and imaged for Cy5 fluorescence (red). Nuclei stained with DAPI (blue). Scale bar, 10 gm. Representative images of three independent experiments. […] Nuclei stained with DAPI (blue). Scale bar, 10 gm. Representative images of three independent experiments. […] Representative data of two independent experiments. […] Representative images of three independent experiments. Scale bar, 50 gm.

The test system of series [2] is CAL-27 cells. Description: Cell cycle (propidium iodide, flow cytometry). The series is classed as cell-based, human. The following applies: treated overnight. As for the experimental part: (§1) Cells were treated with RNAse, stained with propidium iodide (PI) and analysed by FACS using FloJo software.
(In general: In flow cytometry, cells or beads pass a laser one at a time.)

The test system of series [3] is OE19 cells. Nature of the series: Cell cycle (propidium iodide, flow cytometry). The series is classed as cell-based, human. The note with it: treated overnight. As for the experimental part:
as §1

The subject of series [4] is CAL-27 (EGRF+) and OE19 (HER2+) cells. Nature of the series: Alamar Blue cell viability assay. It is filed as cell-based, human. The following applies: dose range, 72-96 h. On the technique in general: Alamar Blue is a resazurin reagent that responds to reducing activity.
Series [5] has as its system CAL-27 cells. Nature of the series: Clonogenic assay (SF2). It is filed as cell-based, human. The following applies: drug overnight then 2 Gy, mertansine 5 nM. The method, then: Following IR, cells were counted, re-plated at varying cell numbers in drug-free media. […] Surviving fraction at 2 Gy (SF2) was calculated as the fraction of cells surviving 2 Gy compared with non-irradiated cells.

Series [6] deals with CALU3 (EGFR+, HER2+) cells. Description: Neutral comet assay. The series is classed as cell-based, human. The following applies: 6 Gy, 2 nM overnight, vs vehicle or 20 nM antibody. The method, then:
(§2) Cells were collected 15 min post IR, suspended in agarose gel and lysed per assay directions (Trevigen). Samples underwent electrophoresis under neutral conditions and were then stained with Sybr Green. Comet tails were counted in multiple fields (>60 cells per sample) and analysed using CometScore (TriTek Corp). Comet tail length was normalized to vehicle-treated, non-irradiated cells.

The subject of another series is OE19 cells (HER2+). Nature of the series: Neutral comet assay. It is filed as cell-based, human. The method, then:
as §2

In a further series the test system is CAL-27 tumour xenografts. Nature of the series: In vivo tumour xenograft experiments (tumour growth). Further details: species or system mice. The following applies: non-irradiated tumours; day 0 dose: 0.5 nmol cetuximab or C-MMAE, 2 nmol free MMAE.
The subject of a further series is HER2+ tumor cells. Nature of the series: Neutral comet assay following 2 Gy, FIG. 8. It is filed as cell-based. The source says:
Neutral comet assay to measure DNA double strand breaks following 2 Gy of ionizing radiation (IR). IR increased comet tail length by 2.8 fold comapred to non-irradiated cells.

In series [7] the test system is HER2 expressing tumor cells; tumor cell lines. Description: Cell survival by Alamar Blue assay, FIG. 7. It is filed as cell-based. The note with it: across tumor cell lines. The text has this: MMAF potency can be increased and cytotoxicity restricted by antibody conjugation. Cell survival measured by Alamar Blue assay.
In series [8] the test system is HCT116 cells. Nature of the series: Cell cycle (propidium iodide, flow cytometry). It is filed as cell-based, human. The note with it: treated overnight. As for the experimental part: as §1
In series [9] the test system is cell lines irrespective of HER2 expression. Nature of the series: Alamar Blue cell viability assay, cells based on HER2 expression. Further details: species or system human. The following applies: 72-96 h.
In series [10] the test system is HCT116 cells. Description: Clonogenic assay (SF2). The following applies: 5 nM mertansine overnight then 2 Gy. It is filed as cell-based, human. As for the experimental part:
Following IR, cells were counted, re-plated at varying cell numbers in drug-free media. 10-14 days after initial seeding formed colonies were methanol fixed, stained with crystal violet and counted. Surviving fraction at 2 Gy (SF2) was calculated as the fraction of cells surviving 2 Gy compared with non-irradiated cells.

The subject of the next series is HER2+ cell lines. Description: Neutral comet assay. The series is classed as cell-based, human. The following applies: HER2+ cells; 20 nM overnight, 2 Gy. The method, then:
as §2

The test system of the next series is HER2− cell lines. Description: Neutral comet assay. It is filed as cell-based, human. The following applies: HER2− cells; 20 nM overnight, 2 Gy. The method, then:
as §2

The subject of series [11] is CAL-27 cells. As for the experimental part: (§3) Alamar Blue (resazurin) was added to the cells and allowed to incubate for 2-4 h at 37° C. Plates were analysed using a plate reader with fluorescence measured at 560 nm.
Series [12] concerns OE19 cells. Nature of the series: Alamar Blue cell viability assay. The series is classed as cell-based, human. The following applies: OE19 (HER2 cell line); 72-96 h.
Series [13] has as its system HCT116 cells. The note with it: HCT116 (HER2−); 72-96 h. As for the experimental part: as §3
In series [14] the test system is NCI N87 (gastric cancer) cells. The note with it: NCI N87 (HER2 cell line); 72-96 h. The method, then: as §3
Another series deals with OE19 tumour xenografts. Nature of the series: Immunohistochemistry of tumour xenografts (pHistone H3, cleaved caspase 3). The series is classed as in vivo, mice. The note with it: OE19 tumours harvested 48 h after injection.
The subject of series [15] is OE19 (HER2+) tumour xenografts. Nature of the series: In vivo tumour xenograft experiments (tumour growth). Further details: species or system mice. The note with it: for Tumour doubling time in days (mean, 95% CI): OE19.
Procedure: (§4) CAL-27, OE19, NCI N87 and HCT116 tumour xenografts were established and tumour growth was measured with digital calipers. Tumour volume was measured blindly to treatment group and calculated using the formula as 1/2×length×width. Mice were randomized into groups once the average tumour volume reached >100=113. […] For irradiated mice, the tumour-bearing hindlimbs were focally irradiated while the remainder of the mouse was shielded from IR with custom designed lead blocking >95% of the dose as verified by dosimeters placed on the mouse. […] To prevent unnecessary morbidity, mice were killed if tumour length exceeded 15 mm per protocol Nonlinear regression least squares fit was used to calculate tumour volume doubling times. […] To minimize the number of mice used, tumours were grown in the bilateral flanks.
Series [16] has as its system NCI N87 (HER2+) tumour xenografts. The series is described as above. Also on record: species or system mice. The following applies: for Tumour doubling time in days (mean, 95% CI): NCI N87.
Procedure: as §4
Series [17] deals with HCT116 (HER2−) tumour xenografts. Described as above. The following applies: for Tumour doubling time in days (mean, 95% CI): HCT116. Further details: species or system mice.
Procedure: as §4
In another series the test system is HER2+ tumours. The note with it: combined with IR. The method, then: CAL-27, OE19, NCI N87 and HCT116 tumour xenografts were established and tumour growth was measured with digital calipers. […] Mice were assigned to indicated groups in ‘Results’. […] For irradiated mice, the tumour-bearing hindlimbs were focally irradiated while the remainder of the mouse was shielded from IR with custom designed lead blocking >95% of the dose as verified by dosimeters placed on the mouse. […] To minimize the number of mice used, tumours were grown in the bilateral flanks.

[18] abbreviates: 0.25 nmol day 0, 2.5 Gy days 1, 2 and 3.
Setting [19] is: 0.25 nmol i.v. day 0 + IR 2.5 Gy days 1, 2 and 3, extrapolated.

Broadly, the IC50 is the concentration at which inhibition is half-maximal.

Square brackets hold non-standard residues; d marks the D form. Peptide text beside a SMILES is read from it. * marks the point of attachment. Dolaproine = CO[C@@H]([C@@H]1CCCN1)[C@@H](C)C(=O)O; Dil = CC[C@H](C)[C@H](NC)[C@@H](CC(=O)O)OC; X1 = C[C@@H](N*)[C@@H](O)c1ccccc1; NMeV = CN[C@H](C(=O)O)C(C)C

Procedure for CAL-27 tumour xenografts: as §4
Procedure for OE19 tumour xenografts: Tissue sections were cut from blocks of formalin-fixed paraffin embedded xenografts. Four micron thick tissue sections were stained with antibodies to phosphohistone H3 (pH3, Abcam, catalogue number ab32107) and cleaved caspase-3 (C1C3, Cell Signaling Technology, catalogue number 9661) and used at dilutions of 1:300 and 1:900, respectively. Slides were stained on a Ventana Discovery Ultra (Ventana Medical Systems, Tucson, Ariz., USA). Antigen retrieval was performed using CC1 for 24-40 min at 95° C. The primary antibodies were incubated on the sections for 1 h at 37° C. Primary antibodies were visualized used DAB as a chromagen using the UltraMap system (Ventana Medical systems) followed by hematoxylin as a counterstain. Slides were rinsed, dehydrated through alcohol and xylene and coverslipped.
Immununostained slides were scanned using an Axio Scan.Z1 (Zeiss; Oberkochen, Germany). […] Whole-slide images were imported into Definiens Software for quantitative analysis (Definiens; Munich, Germany). […] For analysis of pH3 (a nuclear stain), the total number of nuclei and the total number of nuclei showing DAB staining (pH3 positive cells) were recorded within each ROI. The percent of positive nuclei was then calculated for each sample. For analysis of C1C3 (a cytoplasmic stain), mean DAB chromagen intensity was measured and calculated within the ROI for each sample.

For `CC[C@H](C)[C@@H]([C@@H](CC(=O)N1CCC[C@H]1[C@H](OC)[C@@H](C)C(=O)N[C@H](C)[C@@H](O)c1ccccc1)OC)N(C)C(=O)[C@@H](NC(=O)[C@@H](NC)C(C)C)C(C)C` [MMAE, monomethyl auristatin E] (H-[NMeV]V[Dil][Dolaproine]-X1), in the series with CAL-27 cells [1], the cell morphology entry was “cells rounding up, indicative of G2/M”. Also, the “cell cycle profile (G2/M)” value in the series on CAL-27 cells [2] and in the series on OE19 cells [3] was “cells accumulating in G2/M” each time. Further, the “cytotoxicity (cell viability)” value in series [4] was “more potent compared with standard cytotoxic chemotherapies”. Besides, in the series on CAL-27 cells [5], the “surviving fraction following 2 Gy (SF2)” value is “decreased”. Besides, the “comet tail length after irradiation” value in series [6] is recorded as “increased comet tail length to a similar degree”; with OE19 cells (HER2+) (6 Gy, 2 nM overnight), “further increased comet tail length”. In addition, the tumour growth entry with CAL-27 tumour xenografts is recorded as “delayed tumour growth”. Besides, in the series on HER2+ tumor cells, the “IR induced DNA damage (comet tail length)” value is “further increased IR induced DNA damage”.
Regarding `CC[C@H](C)[C@@H]([C@@H](CC(=O)N1CCC[C@H]1[C@H](OC)[C@@H](C)C(=O)N[C@@H](Cc1ccccc1)C(=O)O)OC)N(C)C(=O)[C@@H](NC(=O)[C@@H](NC)C(C)C)C(C)C` [MMAF] (H-[NMeV]V[Dil][Dolaproine]F-OH), the “potency compared to MMAE” value in series [7] is listed as “decreased potency compared to MMAE across tumor cell lines”. For the same molecule, the “IR induced DNA damage (comet tail length)” value in the series with HER2+ tumor cells was “not”.
As to `COc1cc2cc(c1Cl)N(C)C(=O)C[C@H](OC(=O)[C@H](C)N(C)C(=O)CCS)[C@]1(C)O[C@H]1[C@H](C)[C@@H]1C[C@@](O)(NC(=O)O1)[C@H](OC)/C=C/C=C(\C)C2` [mertansine], the “cell cycle profile (G2/M)” value with HCT116 cells [8] is “increased the accumulation of both OE19 and HCT116 cells in the radiosensitive G2/M phase”; with OE19 cells [3], “increased the accumulation of both OE19 and HCT116 cells in the radiosensitive G2/M phase”. Also, in series [9] (across cell lines, irrespective of HER2 expression), half-maximal inhibition (IC50) was put at 10 nM. Further, the “surviving fraction following 2 Gy (SF2)” value in the series with CAL-27 cells [5] and in the series with HCT116 cells [10] was “decreased further” throughout. Moreover, the “radiosensitization (IR induced DNA double-strand breaks)” value in the series with HER2+ cell lines is “radiosensitized by increasing IR induced DNA double-strand breaks in both HER2+ and HER2− cell lines”; in the series on HER2− cell lines, “radiosensitized by increasing IR induced DNA double-strand breaks in both HER2+ and HER2− cell lines”.
On to `CC(=O)O[C@H]1C(=O)[C@@]2(C)[C@H]([C@H](OC(=O)c3ccccc3)[C@]3(O)C[C@H](OC(=O)[C@H](O)[C@@H](NC(=O)c4ccccc4)c4ccccc4)C(C)=C1C3(C)C)[C@]1(OC(C)=O)CO[C@@H]1C[C@@H]2O` [paclitaxel], for which the “cytotoxic potency (comparison)” value with CAL-27 cells [11] (HER2− CAL-27 cells) is given as “more potent than T-DM1”.
ado-trastuzumab emtansine [T-DM1]: the “cell cycle profile (G2/M)” value is listed as “resembled vehide-treated cells” with HCT116 cells [8] and “blocked OE19 cells in G2/M” in the series with OE19 cells [3]. Besides, the IC50 with OE19 cells [12] was under 1 nM; with CAL-27 cells [11] (CAL-27 (HER2−), 72-96 h) it was over 100 nM; with HCT116 cells [13], over 100 nM; in [14] it was under 1 nM. Besides, in series [9], the “potency in relation to HER2 expression” value is on record as “directly correlated with HER2 expression”. The “radiosensitization (IR induced DNA double-strand breaks)” value in the series with HER2+ cell lines is given as “restricted radiosensitization of HER2+cells”; in the series on HER2− cell lines it was “appear inert to irradiated non-HER2 expressing cells”. Besides, the “radiosensitization (comet tail length)” value in the series with OE19 cells (HER2+) (doses as low as 2 nM T-DM1) was “radiosensitized OE19 cells”. In the series with OE19 tumour xenografts, the “apoptosis (cleaved caspase 3) in tumours” value is “increased apoptosis”. Further, in the series with OE19 tumour xenografts, the “cells in G2/M as measured by pS10 Histone H3” value was “increased the number of cells in radiosensitive G2/M phase”. Further, the “tumour regression, combined with IR” value in [15] (setting [18]) and in series [16] (setting [18]) was “significantly prolonged tumour regression” each time. In addition, the “Tumour doubling time in days (mean, 95% CI)” value in series [15] (setting [19]) was 66 (33+) days; in [15] (0.25 nmol i.v. day 0, no IR), 11 (8-17) days; in series [16] (setting [19]) it was 113 (82-179) days; in series [16] (0.25 nmol i.v. day 0, no IR) it was 23 (21-25) days; in series [17] (0.25 nmol i.v. day 0 + IR 2.5 Gy days 1, 2 and 3), 7 (5-12) days; in [17] (0.25 nmol i.v. day 0, no IR), 3 (2-5) days. For the same molecule, the “tumour control combined with IR vs other regimens” value in series [15] (by day 22) and in series [16] (by day 32) was “superior to all other treatment” throughout. Moreover, in series [15] (single dose of 1 nmol, compared with control or trastuzumab by day 14), the tumour growth entry is reported as “equally efficacious in slowing tumour growth”. Moreover, in series [17] (setting [18]), the “benefit of adding drug to IR” value is “showed no benefit of adding T-DM1 to IR”. Moreover, the “long term tumour control (survival curve)” value in the series with HER2+ tumours is given as “long term tumour control was observed”.
